Measurements published in patent US8232308B2, “Methods for treating a disease in which Rho kinase is involved” (UBE Industries, Ltd., priority 2003, dated 2012).
Counter-ions that a name gives are not always drawn.

Compound | melting point
CC(C)(N)c1ccc(-c2ccc3cn[nH]c3c2)cc1 (as salt: hydrochloride) [Compound 5-37, 6-[4-(1-Amino-1-methylethyl)phenyl]-1H-indazole dihydrochloride] | 265 to 269 °C
CC(=O)n1ncc2ccc(-c3ccc(C(C)(C)N)cc3)cc21 (as salt: hydrochloride) [Compound 5-38, 1-Acetyl-6-[4-(1-amino-1-methylethyl)phenyl]-1H-indazole dihydrochloride] | 225 to 230 °C
CC(C)(N)c1ccc(-c2ccc3[nH]ncc3c2N2CCCCC2)cc1 (as salt: hydrochloride) [Compound 5-41, 5-[4-(1-Amino-1-methylethyl)phenyl]-4-(piperidin-1-yl)-1H-indazole trihydrochloride] | 205 to 208 °C (dec.)
CC(C)(N)c1ccc(-c2ccc3[nH]ncc3c2N2CCCC2)cc1 (as salt: hydrochloride) [Compound 5-42, 5-[4-(1-Amino-1-methylethyl)phenyl]-4-(pyrrolidin-1-yl)-1H-indazole trihydrochloride] | 218 to 224 °C (dec.)
CC(C)(N)c1ccc(-c2ccc3[nH]ncc3c2N2CCOCC2)cc1 (as salt: hydrochloride) [Compound 5-43, 5-[4-(1-Amino-1-methylethyl)phenyl]-4-(morpholin-4-yl)-1H-indazole trihydrochloride] | 268 to 272 °C (dec.)
COc1c(-c2ccc(C(C)(C)N)cn2)ccc2[nH]ncc12 (as salt: hydrochloride) [Compound 5-45, 5-[5-(1-Amino-1-methylethyl)pyridin-2-yl]-4-methoxy-1H-indazole trihydrochloride] | 195 to 201 °C (dec.)
COc1c(-c2ccc(C3(N)CCCC3)cn2)ccc2[nH]ncc12 (as salt: hydrochloride) [Compound 5-46, 5-[5-(1-Aminocyclopentyl)pyridin-2-yl]-4-methoxy-1H-indazole trihydrochloride] | 195 to 203 °C (dec.)
CCOc1c(-c2ccc(C(C)(C)N)cn2)ccc2[nH]ncc12 (as salt: hydrochloride) [Compound 5-47, 5-[5-(1-Amino-1-methylethyl)pyridin-2-yl]-4-ethoxy-1H-indazole trihydrochloride] | 198 to 201 °C
CC(C)Oc1c(-c2ccc(C(C)(C)N)cn2)ccc2[nH]ncc12 (as salt: hydrochloride) [Compound 5-50, 5-[5-(1-Amino-1-methylethyl)pyridin-2-yl]-4-isopropoxy-1H-indazole trihydrochloride] | 211 to 213 °C (dec.)
CCC(N)(CC)c1ccc(-c2ccc3[nH]ncc3c2OC)nc1 (as salt: hydrochloride) [Compound 5-51, 5-[5-(1-Amino-1-ethylpropyl)pyridin-2-yl]-4-methoxy-1H-indazole trihydrochloride] | 204 to 206 °C (dec.)
CCCCOc1c(-c2ccc(C(C)(C)N)cc2)ccc2[nH]ncc12 (as salt: hydrochloride) [Compound 5-55, 5-[4-(1-Amino-1-methylethyl)phenyl]-4-n-butoxy-1H-indazole dihydrochloride] | 227 to 229 °C (dec.)
CCCOc1c(-c2ccc(C(C)(C)N)cn2)ccc2[nH]ncc12 (as salt: hydrochloride) [Compound 5-58, 5-[5-(1-Amino-1-methylethyl)pyridin-2-yl]-4-n-propoxy-1H-indazole trihydrochloride] | 194 to 198 °C (dec.)
CC(C)(N)c1ccc(-c2ccc3[nH]ncc3c2OC(F)F)nc1 (as salt: hydrochloride) [Compound 5-59, 5-[5-(1-Amino-1-methylethyl)pyridin-2-yl]-4-difluoromethoxy-1H-indazole trihydrochloride] | 170 to 173 °C
CCOc1c(-c2ccc(C(N)(CC)CC)cn2)ccc2[nH]ncc12 (as salt: hydrochloride) [Compound 5-60, 5-[5-(1-Amino-1-ethylpropyl)pyridin-2-yl]-4-ethoxy-1H-indazole trihydrochloride] | 200 to 202 °C (dec.)
CC(C)(N)c1ccc(-c2ccc3[nH]ncc3c2O)nc1 (as salt: hydrochloride) [Compound 5-69, 5-[5-(1-Amino-1-methylethyl)pyridin-2-yl]-4-hydroxy-1H-indazole trihydrochloride] | 255 to 260 °C (dec.)
CC(C)(N)c1ccc(-c2ccc3[nH]ncc3c2OC2CC2)nc1 (as salt: hydrochloride) [Compound 5-70, 5-[5-(1-Amino-1-methylethyl)pyridin-2-yl]-4-cyclo-propyloxy-1H-indazole trihydrochloride] | 203 to 205 °C (dec.)
CCC(N)(CC)c1ccc(-c2ccc3[nH]ncc3c2OC2CC2)nc1 (as salt: hydrochloride) [Compound 5-71, 5-[5-(1-Amino-1-ethylpropyl)pyridin-2-yl]-4-cyclo-propyloxy-1H-indazole trihydrochloride] | 207 to 209 °C (dec.)
CCC(N)(CC)c1ccc(-c2ccc3[nH]ncc3c2OC(F)F)cc1 (as salt: hydrochloride) [Compound 5-72, 5-[4-(1-Amino-1-ethylpropyl)phenyl]-4-difluoro-methoxy-1H-indazole dihydrochloride] | 234 to 237 °C
C=C(C)c1n[nH]c2ccc(-c3ccc(C(C)(C)N)cc3)cc12 (as salt: trifluoroacetate) [Compound 5-15, 5-[4-(1-Amino-1-methylethyl)phenyl]-3-(1-methyl-vinyl)-1H-indazole monotrifluoroacetate] | 221 to 225 °C (dec.)
CN(C)/C=C/C(=O)c1c(-c2ccc(C(C)(C)NC(=O)OC(C)(C)C)cc2)ccc2nn(C3CCCCO3)cc12 (centres unmarked) [Compound 29, 5-[4-(1-tert-butoxycarbonylamino-1-methylethyl)phenyl]-4-(3-dimethylaminoacryloyl)-2-(tetra-hydropyran-2-yl)-2H-indazole] | 191 to 194 °C

Results, then the molecule that gave them:

melting point | Compound
202 to 203 °C (dec.) | CC(C)(N)c1ccc(-c2ccc3[nH]ncc3c2CCO)cc1 (as salt: hydrochloride) [Compound 5-32, 5-[4-(1-Amino-1-methylethyl)phenyl]-4-(2-hydroxy-ethyl)-1H-indazole dihydrochloride]
270 to 272 °C | CC(C)(N)c1ccc(-c2ccc3[nH]ncc3c2C#N)cc1 (as salt: hydrochloride) [Compound 5-36, 5-[4-(1-Amino-1-methylethyl)phenyl]-4-cyano-1H-indazole monohydrochloride]
244 to 247 °C (dec.) | CC(C)(N)c1ccc(-c2ccc3[nH]ncc3c2-n2cccc2)cc1 (as salt: hydrochloride) [Compound 5-39, 5-[4-(1-Amino-1-methylethyl)phenyl]-4-(pyrrol-1-yl)-1H-indazole dihydrochloride]
242 to 246 °C (dec.) | CC(C)Oc1c(-c2ccc(C(C)(C)N)cc2)ccc2[nH]ncc12 (as salt: hydrochloride) [Compound 5-40, 5-[4-(1-Amino-1-methylethyl)phenyl]-4-isopropoxy-1H-indazole dihydrochloride]
258 to 261 °C (dec.) | COc1c(-c2ccc(C(C)(C)N)cc2)ccc2[nH]ncc12 (as salt: hydrochloride) [Compound 5-44, 5-[4-(1-Amino-1-methylethyl)phenyl]-4-methoxy-1H-indazole dihydrochloride]
194 to 198 °C (dec.) | CC(C)(N)c1ccc(-c2ccc3[nH]ncc3c2O)cc1 (as salt: hydrochloride) [Compound 5-48, 5-[4-(1-Amino-1-methylethyl)phenyl]-4-hydroxy-1H-indazole dihydrochloride]
248 to 256 °C (dec.) | CCOc1c(-c2ccc(C(C)(C)N)cc2)ccc2[nH]ncc12 (as salt: hydrochloride) [Compound 5-49, 5-[4-(1-Amino-1-methylethyl)phenyl]-4-ethoxy-1H-indazole dihydrochloride]
237 to 243 °C (dec.) | CCCOc1c(-c2ccc(C(C)(C)N)cc2)ccc2[nH]ncc12 (as salt: hydrochloride) [Compound 5-52, 5-[4-(1-Amino-1-methylethyl)phenyl]-4-n-propoxy-1H-indazole dihydrochloride]
227 to 230 °C (dec.) | CC(C)(N)c1ccc(-c2ccc3[nH]ncc3c2OC(F)F)cc1 (as salt: hydrochloride) [Compound 5-53, 5-[4-(1-Amino-1-methylethyl)phenyl]-4-difluoro-methoxy-1H-indazole dihydrochloride]
205 to 207 °C (dec.) | C=CCOc1c(-c2ccc(C(C)(C)N)cc2)ccc2[nH]ncc12 (as salt: hydrochloride) [Compound 5-57, 4-Allyloxy-5-[4-(1-amino-1-methylethyl)phenyl]-1H-indazole dihydrochloride]
266 to 269 °C (dec.) | CC(C)(N)c1ccc(-c2ccc3[nH]ncc3c2-c2ccncc2)cc1 (as salt: hydrochloride) [Compound 5-61, 5-[4-(1-Amino-1-methylethyl)phenyl]-4-(pyridin-4-yl)-1H-indazole trihydrochloride]
210 to 214 °C (dec.) | CC(C)(N)c1ccc(-c2ccc3[nH]ncc3c2-c2ccccn2)cc1 (as salt: hydrochloride) [Compound 5-63, 5-[4-(1-Amino-1-methylethyl)phenyl]-4-(pyridin-2-yl)-1H-indazole trihydrochloride]
259 to 267 °C (dec.) | CC(C)(N)c1ccc(-c2ccc3[nH]ncc3c2-c2cn[nH]c2)cc1 (as salt: hydrochloride) [Compound 5-64, 5-[4-(1-Amino-1-methylethyl)phenyl]-4-(pyrazol-4-yl)-1H-indazole trihydrochloride]
212 to 214 °C (dec.) | CC(C)(N)c1ccc(-c2ccc3[nH]ncc3c2-c2cnco2)cc1 (as salt: hydrochloride) [Compound 5-66, 5-[4-(1-Amino-1-methylethyl)phenyl]-4-(oxazol-5-yl)-1H-indazole dihydrochloride]
256 to 258 °C (dec.) | CC(C)(N)c1ccc(-c2ccc3[nH]ncc3c2-c2ccno2)cc1 (as salt: hydrochloride) [Compound 5-68, 5-[4-(1-Amino-1-methylethyl)phenyl]-4-(isoxazol-5-yl)-1H-indazole dihydrochloride]
